Experimental data published in patent publication US11160797B2, “Pyridinone derivatives and their use as selective ALK-2 inhibitors” (NOVARTIS AG, priority 2017, dated 2021).
Like-named read-outs stand apart in the source and are kept apart here.

Tests used:
ALK1 (aa166-493) = ALK1 (aa166-493) (Homo sapiens (Human), UniProt P37023); assay: Caliper biochemical peptide phosphorylation assay, ALK1; settings: 15 uM ATP
ALK5 (aa162-503) = ALK5 (aa162-503) (Homo sapiens (Human), UniProt P36897); assay: Caliper biochemical peptide phosphorylation assay, ALK5; settings: 15 uM ATP
Chain of ALK5 (aa162-503) (P36897 162-503): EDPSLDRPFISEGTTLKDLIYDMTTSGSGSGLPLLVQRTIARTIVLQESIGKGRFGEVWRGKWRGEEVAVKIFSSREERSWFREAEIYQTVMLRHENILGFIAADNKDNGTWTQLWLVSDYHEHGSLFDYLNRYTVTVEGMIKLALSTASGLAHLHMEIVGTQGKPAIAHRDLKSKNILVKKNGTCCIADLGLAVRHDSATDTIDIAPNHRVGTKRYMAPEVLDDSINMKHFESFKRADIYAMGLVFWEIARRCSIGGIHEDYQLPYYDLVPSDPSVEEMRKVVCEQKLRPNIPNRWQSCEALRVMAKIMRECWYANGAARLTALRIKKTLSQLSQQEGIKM
Source text: For all biochemical assays, human recombinant proteins were expressed in and purified from baculo virus transfected insect cells. The constructs comprised the GS-domain and kinase domain of wild-type ALK2 (aa172-499), ALK2 FOP mutant (aa172-499 R206H), ALK3 (aa198-525), ALK5 (aa162-503) and ALK6 (aa168-495).
A kinase selectivity panel which measures substrate peptide phosphorylation was set-up for wild-type ALK2 (aa172-499), ALK2 FOP mutant (aa172-499 R206H), ALK1 (aa166-493), ALK5 (aa162-503) and ALK6 (aa168-495). The technology used for the described assay is based on the separation and quantification of substrate and product in an electrical field. In the course of the kinase reaction the peptide substrate is phosphorylated by a kinase. […] Due to this difference in charge the phosphorylated und unphosphorylated peptides migrate with different velocities in an electrical field.
In the applied method, this separation takes place inside a chip that contains a complex capillary system for simultaneous analysis of 12 samples (“LabChip EZ Reader 12-sipper chip”, Caliper Technologies Corp., Mountain View, USA). In order to allow the detection and quantification of the peptides in the capillary system, the peptides carry a fluorescent label (fluorescein). With this label the peptides can be quantified by fluorescence intensity through the instruments laser and detection system (LC3000, Caliper Life Sciences).
The assays were performed in 384-well, low volume microtiter assay plates in a final reaction volume of 9 ul. Dose-response curves were generated by incubating 10 nM of each kinase together with 2 uM of the fluorescently labeled substrate peptide 5-Fluo-Ahx-[…]-T-[…]-amid (10 mM stock solution in DMSO) in 50 mM Hepes pH 7.5, 0.02% Tween 20, 0.02% BSA, 1 mM DTT, 10 uM Na3VO4, 10 mM ß-Glycerolphosphate, 1 mM MgCl2, 12 mM MnCl2 (ALK1 and ALK6 7 mM) and 15 uM ATP for 60 min at 30° C. in the presence or absence of compound diluted in DMSO.
Kinase reactions were terminated by adding 15 ul STOP buffer (100 mM HEPES pH 7.5, 5% DMSO, 0.1% Caliper coating reagent, 10 mM EDTA, and 0.015% Brij35.
Plates with terminated kinase reactions were transferred to the Caliper LC3000 workstation (Caliper Technologies Corp., Mountain View, USA) for reading. The relative amount of phosphorylated peptide r, was calculated using the heights of the substrate peak, s, and the product peak, p:r=p/(p+s).
IC50 values for a given antagonist correspond to the compound concentration needed to inhibit half of the maximum signal of the kinase reaction.

[1] = biological target: ALK2 FOP mutant (aa172-499 R206H) (Homo sapiens (Human), UniProt Q04771, R206H); assay: Caliper biochemical peptide phosphorylation assay, ALK2 FOP
Chain of ALK2 FOP mutant (aa172-499 R206H) (Q04771 172-499 R206H): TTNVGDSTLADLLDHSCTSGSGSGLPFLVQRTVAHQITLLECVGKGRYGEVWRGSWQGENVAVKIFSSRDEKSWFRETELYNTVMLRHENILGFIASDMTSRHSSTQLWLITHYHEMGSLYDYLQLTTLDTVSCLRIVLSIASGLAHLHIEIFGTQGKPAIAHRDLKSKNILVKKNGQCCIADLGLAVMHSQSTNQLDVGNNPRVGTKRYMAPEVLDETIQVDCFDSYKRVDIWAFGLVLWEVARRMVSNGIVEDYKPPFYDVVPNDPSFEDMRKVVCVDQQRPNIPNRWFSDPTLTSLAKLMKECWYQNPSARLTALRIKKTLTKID

[2] = biological target: T1, wild-type ALK2 (aa172-499) (Homo sapiens (Human), UniProt Q04771); assay: ADPGlo biochemical autophosphorylation assay, ALK2; settings: 15 uM ATP
T1 sequence (Q04771 172-499): as the sequence (Q04771 172-499 R206H) above, with H35R counted along it

[3] = biological target: T1, wild-type ALK2 (aa172-499); assay: Caliper biochemical peptide phosphorylation assay, ALK2
[4] = tested on: HuH7 cells, BMP response element (BRE) luciferase reporter, BMP6 stimulated; assay: BMP signaling reporter gene assay; assay type: cell-based; settings: Homo sapiens, Huh-7; BMP6 100 ng/ml; read-out: MSD HuH7 cell BMP reporter IC50
Method: A human liver hepatocellular carcinoma cell line (HuH7) stably transfected with a reporter plasmid consisting of the human BMP response element (BRE) from the Id1 promoter fused to a luciferase reporter gene was generated through lentiviral transduction.
Assays were performed in 384-well flat bottom polystyrene microtiter plates (cell culture treated) with sterile lids. The cells were starved through medium exchange in Blasticidine- and FCS-free medium 16 h before the assay. Prior to the assay, cells were detached from the stock flask using trypsin/EDTA and counted. A cell suspension in the same medium without Blasticidin and FCS was prepared. 2×10^4 cells in a total volume of 40 ul were added to each well of a plate already containing serial dilutions of each compound in DMSO (final DMSO concentration 0.5%). […] Assay plates are incubated for another 5 hours at 37° C., 5% CO2 before luciferase levels are measured.
The amount of expressed luciferase is quantified using the Steady-Glo® Luciferase Assay System (Promega #E2520).

[5] = Caliper peptide phosphorylation, R206H, 15 uM ATP, read-out: ALK2 FOP EPK IC50
[6] = Caliper peptide phosphorylation, 15 uM ATP, read-out: ALK2 IC50

Chain of ALK1 (aa166-493) (P37023 166-493): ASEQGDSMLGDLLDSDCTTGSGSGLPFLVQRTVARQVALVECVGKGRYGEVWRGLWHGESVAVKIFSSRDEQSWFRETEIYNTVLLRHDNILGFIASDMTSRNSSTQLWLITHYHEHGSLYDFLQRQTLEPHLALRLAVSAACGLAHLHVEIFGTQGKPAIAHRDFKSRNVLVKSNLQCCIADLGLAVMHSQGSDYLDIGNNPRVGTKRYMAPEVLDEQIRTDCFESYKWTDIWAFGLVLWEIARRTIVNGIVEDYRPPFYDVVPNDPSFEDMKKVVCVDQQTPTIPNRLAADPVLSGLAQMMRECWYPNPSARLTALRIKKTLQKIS

| SMILES | IC50 (ALK1 (aa166-493)) [nM] | IC50 (ALK5 (aa162-503)) [nM] | IC50 [1, 5] [nM] | IC50 [2] [nM] | IC50 [3, 6] [nM] | IC50 [4] [nM] | IC50 ([1]; read-out: IC50 in the ALK2-FOP assay) [nM] | IC50 ([3]; read-out: IC50 in the ALK2 assay) [nM] |
| --- | --- | --- | --- | --- | --- | --- | --- | --- |
| CC1C(=O)Nc2cc(-c3cncc(-c4ccc(=O)n(C(C)C)c4)c3)ccc21 (centres unmarked) [Example 33, 6-(1′-isopropyl-6′-oxo-1′,6′-dihydro-[3,3′-bipyridin]-5-yl)-3-methylindolin-2-one] | 760 | 2700 | 150 | 180 | 170 | 330 | – | – |
| Cc1cc(-c2cncc(-c3ccc(=O)n(C(C)C)c3)c2)cc2c1N(C)C(=O)C2 [Example 35, 5-(1′-isopropyl-6′-oxo-1′,6′-dihydro-[3,3′-bipyridin]-5-yl)-1,7-dimethylindolin-2-one] | 630 | 5700 | 91 | 110 | 100 | 140 | – | – |
| CN1C(=O)Cc2cc(-c3cncc(-c4ccc(=O)n(C5CC5)c4)c3)ccc21 [Example 10, 5-(1′-cyclopropyl-6′-oxo-1′,6′-dihydro-[3,3′-bipyridin]-5-yl)-1-methylindolin-2-one] | 2900 | > 10000 | 390 | 710 | 410 | 730 | – | – |
| CC(C)n1cc(-c2cncc(-c3ccc4c(c3)N(C)C(=O)C4)c2)ccc1=O [Example 26, 6-(1′-Isopropyl-6′-oxo-1′,6′-dihydro-[3,3′-bipyridin]-5-yl)-1-methylindolin-2-one] | – | > 10000 | 590 | 710 | 470 | – | – | – |
| CCC(C)n1cc(-c2cncc(-c3ccc4c(c3)CC(=O)N4C)c2)ccc1=O (centres unmarked) [Example 7, 5-(1′-(sec-butyl)-6′-oxo-1′,6′-dihydro-[3,3′-bipyridin]-5-yl)-1-methylindolin-2-one] | 1200 | 4400 | 170 | 230 | 190 | – | – | – |
| CC(C)n1cc(-c2cncc(-c3cnc4c(c3)C(C)(C)C(=O)N4C)c2)ccc1=O [5-(1′-isopropyl-6′-oxo-1′,6′-dihydro-[3,3′-bipyridin]-5-yl)-1,3,3-trimethyl-1H-pyrrolo[2,3-b]pyridin-2(3H)-one] | – | – | – | – | – | – | > 1000 | > 1000 |
| CC(C)n1cc(-c2cncc(-c3ccc4c(c3)CC(=O)N4)c2)ccc1=O [Example 34, 5-(5-(1-Isopropyl-6-oxo-1,6-dihydropyridin-3-yl)pyridin-3-yl)indolin-2-one] | 1100 | 3400 | 170 | 300 | 180 | 190 | – | – |
| CCN1C(=O)Cc2cc(-c3cncc(-c4ccc(=O)n(C(C)C)c4)c3)ccc21 [Example 20, 1-Ethyl-5-(1′-isopropyl-6′-oxo-1′,6′-dihydro-[3,3′-bipyridin]-5-yl)indolin-2-one] | – | 2500 | 90 | 110 | 90 | 140 | – | – |
| CC(C)n1cc(-c2cncc(-c3ccc4c(c3)CCC(=O)N4C)c2)ccc1=O [Example 28, 6-(1′-Isopropyl-6′-oxo-1′,6′-dihydro-[3,3′-bipyridin]-5-yl)-1-methyl-3,4-dihydroquinolin-2(1H)-one] | – | 580 | 20 | 31 | 30 | – | – | – |
| CC(C)n1cc(-c2cncc(-c3ccc4c(c3)NC(=O)C4(C)C)c2)ccc1=O [Example 32, 6-(1′-isopropyl-6′-oxo-1′,6′-dihydro-[3,3′-bipyridin]-5-yl)-3,3-dimethylindolin-2-one] | 280 | 690 | – | – | – | – | – | – |
| CCC(CC)n1cc(-c2cncc(-c3ccc4c(c3)CC(=O)N4C)c2)ccc1=O [Example 4, 1-methyl-5-(6′-oxo-1′-(pentan-3-yl)-1′,6′-dihydro-[3,3′-bipyridin]-5-yl)indolin-2-one] | – | > 10000 | 650 | 1300 | 600 | – | – | – |
| CC(C)n1cc(-c2cncc(-c3ccc4c(c3)CCCC(=O)N4C)c2)ccc1=O [Example 39, 7-(1′-isopropyl-6′-oxo-1′,6′-dihydro-[3,3′-bipyridin]-5-yl)-1-methyl-4,5-dihydro-1H-benzo[b]azepin-2(3H)-one] | 350 | 1400 | 60 | 89 | 70 | 110 | – | – |
| CCc1cc(-c2cncc(-c3ccc4c(c3)CC(=O)N4C)c2)cn(C(C)C)c1=O [Example 5, 5-(5′-Ethyl-1′-isopropyl-6′-oxo-1′,6′-dihydro-[3,3′-bipyridin]-5-yl)-1-methylindolin-2-one] | 900 | 720 | 130 | 140 | 160 | 60 | – | – |
| CC(C)n1cc(-c2cncc(-c3cc4c(cc3F)N(C)C(=O)C4)c2)ccc1=O [Example 31] | 770 | 5300 | 90 | 120 | 100 | 130 | – | – |
| CCn1cc(-c2cncc(-c3ccc4c(c3)CC(=O)N4C)c2)ccc1=O [Example 9, 5-(1′-ethyl-6′-oxo-1′,6′-dihydro-[3,3′-bipyridin]-5-yl)-1-methylindolin-2-one] | – | > 10000 | 400 | 490 | 460 | 540 | – | – |
| Cc1cc(-c2cncc(-c3ccc4c(c3)CC(=O)N4C)c2)cn(C(C)C)c1=O [Example 3, 5-(5-(1-Isopropyl-5-methyl-6-oxo-1,6-dihydropyridin-3-yl)pyridin-3-yl)-1-methylindolin-2-one] | – | 660 | 70 | 97 | 90 | 50 | – | – |
| CC(C)Cn1cc(-c2cncc(-c3ccc4c(c3)CC(=O)N4C)c2)ccc1=O [Example 14, 5-(1′-isobutyl-6′-oxo-1′,6′-dihydro-[3,3′-bipyridin]-5-yl)-1-methylindolin-2-one] | 4600 | 9100 | 510 | 740 | 480 | 680 | – | – |
| COCCN1C(=O)Cc2cc(-c3cncc(-c4ccc(=O)n(C(C)C)c4)c3)cnc21 [Example 27, 5-(1′-Isopropyl-6′-oxo-1′,6′-dihydro-[3,3′-bipyridin]-5-yl)-1-(2-methoxyethyl)-1H-pyrrolo[2,3-b]pyridin-2(3H)-one] | > 10000 | > 10000 | 1200 | 1700 | 880 | – | – | – |
| COCCCN1C(=O)Cc2cc(-c3cncc(-c4ccc(=O)n(C(C)C)c4)c3)ccc21 [Example 30, 5-(1′-isopropyl-6′-oxo-1′,6′-dihydro-[3,3′-bipyridin]-5-yl)-1-(3-methoxypropyl)indolin-2-one] | 1500 | 6000 | – | – | – | – | – | – |
| COCCN1C(=O)Cc2cc(-c3cncc(-c4ccc(=O)n(C(C)C)c4)c3)ccc21 [Example 29, 5-(1′-Isopropyl-6′-oxo-1′,6′-dihydro-[3,3′-bipyridin]-5-yl)-1-(2-methoxyethyl)indolin-2-one] | 1600 | 6800 | 150 | 140 | 130 | – | – | – |
| CC(C)n1cc(-c2cncc(-c3ccc4c(c3)CC(=O)N4C)c2F)ccc1=O [Example 52, 5-(4-fluoro-1′-isopropyl-6′-oxo-1′,6′-dihydro-[3,3′-bipyridin]-5-yl)-1-methylindolin-2-one] | 3600 | > 10000 | 380 | 690 | 380 | – | – | – |
